Usually IC50 stands for the concentration that inhibits the measured activity by half. High values mean lower potency, low ones higher potency. As a reminder, the EC50 is the concentration giving half of the maximal effect.

In ChEMBL document CHEMBL4024722, “Discovery of acylguanidine oseltamivir carboxylate derivatives as potent neuraminidase inhibitors” (Bioorg Med Chem, 2017) one finds IC50, EC50 and selectivity ratio data, which are given here for 17 molecules.

Data set [1] in a line: Inhibition of Influenza A virus (A/Puerto Rico/8/1934(H1N1)) neuraminidase H259Y mutant using 4-MU-NANA as substrate preincubated for 10 mins followed by substrate addition measured after 1 hr by fluorescence assay.
Data set [2] deals with Influenza A virus. The experiment in a line: Antiviral activity against Influenza A virus (A/Puerto Rico/8/1934(H1N1)) harboring wild type neuraminidase assessed as inhibition of viral replication preincubated for 36 hrs followed by reinfection in new monolayer of MDCK cells every 1 hr for 12 hrs. Type of data set: functional.
A further data set can be described thus: in vitro. Conditions: dog, MDCK cells.
For data set [3], the system named is Influenza A virus. Type of data set: functional, cell-based, A/Puerto Rico/8/1934(H1N1).
Data set [4] can be described thus: Antiviral activity against Influenza A virus (A/Hong Kong/498/97(H3N2)) harboring wild type neuraminidase infected in MDCK cells assessed as inhibition of viral replication preincubated for 36 hrs followed by reinfection in new monolayer of MDCK cells every 1 hr for 24 hrs. Type of data set: functional, cell-based.

A value given as a limit tells only on which side of the number the result lay.

Turning to `CCC(CC)O[C@@H]1C=C(C(=O)O)C[C@H](NC(=N)NC(=O)Cc2ccc(C)cc2)[C@H]1NC(C)=O`, in data set [1], 132 nM corresponded to half-maximal inhibition (IC50).

As for `CCC(CC)O[C@@H]1C=C(C(=O)O)C[C@H](NC(=N)NC(=O)c2cccc(C)c2)[C@H]1NC(C)=O`, the IC50 in data set [1] is > 1000 nM.

As to `CCC(CC)O[C@@H]1C=C(C(=O)O)C[C@H](NC(=N)NC(=O)Cc2ccc(Br)cc2)[C@H]1NC(C)=O`, the values for the EC50 (with Influenza A virus [2]; with Influenza A virus [3]; in data set [4]) were 12.9 nM, 69.1 nM and 2.58 nM, respectively. The selectivity ratio in the data set “in vitro” is > 14.5. The molecule further registered an IC50 in data set [1] of 40.6 nM.

`CCCCC(=O)NC(=N)N[C@H]1CC(C(=O)O)=C[C@@H](OC(CC)CC)[C@@H]1NC(C)=O` displayed an IC50 in data set [1] of 163 nM.

With `CCC(CC)O[C@@H]1C=C(C(=O)O)C[C@H](NC(=N)NC(=O)c2ccncc2)[C@H]1NC(C)=O`, the midpoint of inhibition in data set [1], the IC50, lay at 36.8 nM.

In the case of `CCC(CC)O[C@@H]1C=C(C(=O)O)C[C@H](NC(=N)NC(=O)c2ccc([N+](=O)[O-])cc2)[C@H]1NC(C)=O`, the EC50 turned out to be 160 nM in the data set with Influenza A virus [2], 136 nM in the data set with Influenza A virus [3] and 39.2 nM in data set [4]. In “in vitro”, the selectivity ratio is > 7.4. The same molecule came in with an IC50 in data set [1] of 57.8 nM.

For `CCC(CC)O[C@@H]1C=C(C(=O)O)C[C@H](NC(=N)NC(=O)Cc2ccc3ccccc3c2)[C@H]1NC(C)=O`, the figures for the EC50 (in the data set with Influenza A virus [2]; in the data set on Influenza A virus [3]; in data set [4]) were 8.45 nM, 11.3 nM and 3.95 nM, respectively. For the same molecule, the selectivity ratio in the data set “in vitro” is > 88.6. The molecule further displayed an IC50 in data set [1] of 66.7 nM.

In the case of `CCC(CC)O[C@@H]1C=C(C(=O)O)C[C@H](NC(=N)NC(=O)CCc2ccccc2)[C@H]1NC(C)=O`, in data set [1], half-maximal inhibition (IC50) was put at 114 nM.

In turn, `CCC(CC)O[C@@H]1C=C(C(=O)O)C[C@H](NC(=N)NC(=O)C(C)C)[C@H]1NC(C)=O` yielded an IC50 in data set [1] of 132 nM.

In data set [1], `CCC(CC)O[C@@H]1C=C(C(=O)O)C[C@H](NC(=N)NC(=O)CCc2cccnc2)[C@H]1NC(C)=O` had an IC50 of 21.1 nM.

For `CCC(=O)NC(=N)N[C@H]1CC(C(=O)O)=C[C@@H](OC(CC)CC)[C@@H]1NC(C)=O`, the EC50 in the data set with Influenza A virus [2] was 23.9 nM; in the data set with Influenza A virus [3], 37.3 nM; in data set [4] it was 5.3 nM. Moreover, in the data set “in vitro”, the selectivity ratio was > 26.8. In data set [1], this molecule yielded an IC50 of 74.2 nM.

In turn, `CCC(CC)O[C@@H]1C=C(C(=O)O)C[C@H](NC(=N)NC(=O)Cc2ccccc2C)[C@H]1NC(C)=O` registered an IC50 in data set [1] of 225 nM.

For `CCC(CC)O[C@@H]1C=C(C(=O)O)C[C@H](NC(=N)NC(=O)CCc2ccc(OC)c(OC)c2)[C@H]1NC(C)=O`, the values for the EC50 (in the data set with Influenza A virus [2]; with Influenza A virus [3]; in data set [4]) were 20.1 nM, 23 nM and 5.62 nM, respectively. Also, the selectivity ratio in the data set “in vitro” is > 43.4. Half-maximal inhibition in data set [1] (IC50) was put at 14.5 nM.

For the molecule `C=CCCC(=O)NC(=N)N[C@H]1CC(C(=O)O)=C[C@@H](OC(CC)CC)[C@@H]1NC(C)=O`, the figures for the EC50 (in the data set on Influenza A virus [2]; in the data set on Influenza A virus [3]; in data set [4]) were 24.5 nM, 7.18 nM and 9.45 nM, respectively. In addition, in “in vitro”, the selectivity ratio was > 139. The midpoint of inhibition in data set [1], the IC50, lay at 30.5 nM.

Take `CCC(CC)O[C@@H]1C=C(C(=O)O)C[C@H](NC(=N)NC(=O)CC(C)C)[C@H]1NC(C)=O`: in data set [1], the IC50 came to 445 nM.

In data set [1], `CCCC(=O)NC(=N)N[C@H]1CC(C(=O)O)=C[C@@H](OC(CC)CC)[C@@H]1NC(C)=O` registered an IC50 of 133 nM.

In data set [1], `CCC(CC)O[C@@H]1C=C(C(=O)O)C[C@H](NC(=N)NC(=O)CCCc2ccccc2)[C@H]1NC(C)=O` showed an IC50 of 221 nM.
